Test results: paper PMC10057480, “Expanding the Library of 1,2,4-Oxadiazole Derivatives: Discovery of New Farnesoid X Receptor (FXR) Antagonists/Pregnane X Receptor (PXR) Agonists” (Molecules, 2023)
Where “and” joins values, the source holds several entries; their conditions need not be identical. Identical values can stand only once.

What was measured:
[1] = LogD measurement (1-octanol/PBS pH 7.4, LC-MS/MS); format: physicochemical
Description: 40 μL of a 10 mM solution in DMSO of each compound was added to a 2 mL test tube containing 980 μL of PBS pH 7.4 and 980 μL of 1-Octanol (in duplicate). The tubes were shaken for 2 h at room temperature and subsequently kept still to allow for an optimal phase separation. The two phases were then separated, and 10 μL of each sample was diluted in 490 μL of MeOH for LC-MS/MS analysis. LogD was calculated as Log10 of the ratio of mass signal octanol/PBS. LC-MS/MS analysis was conducted using a Kinetex 2.6 µm C18 100 Å LC column 100 × 2.1 mm by means of a linear gradient of the aqueous phase (H2O 0.1% FA) and organic phase (ACN 0.1% FA).

[2] = tested on: FXR target genes (BSEP, OSTα, NTCP) in HepG2 cells; experiment: qPCR of FXR target genes in HepG2 cells; format: cell-based; details: 6-ECDCA 10 μM plus compound
Description: HepG2 and CaCo2 cell lines, obtained from ATCC, were routinely cultured in Eagle’s MEM and high-glucose DMEM, respectively, supplemented with 10% FBS, 1% glutamine, and penicillin/streptomycin. For in vitro experiments, HepG2 (2 × 106) cells were stimulated with 6-ECDCA at a concentration of 10 µM alone or in combination with compound 5 or 11, and CaCo2 cells were exposed to TNFα (100 ng/mL) alone or in combination with rifaximin, compound 5, or 11.
Total RNA was isolated from the HepG2 and CaCo2 cell lines using TRI reagent (Zymo Research) and Direct-zol™ RNA MicroPrep w/Zymo-Spin™ IIC Columns (Zymo Research, Irvine, CA, USA). After purification from genomic DNA using DNase I (Thermo Fisher Scientific, Waltham, MA, USA), 2 μg of RNA from each sample was reverse transcribed using Kit FastGene Scriptase Basic (Nippon Genetics, Mariaweilerstraße, Düren, Germany) in 20-μL of reaction volume, and 50 ng of cDNA was amplified in a 20-μL solution containing 200 nM of each primer and 10 μL of PowerUp™ SYBR™ Green Master Mix (Thermo Fisher Scientific, Waltham, MA, USA) using a Quantstudio 3 system (Applied Biosystems, Foster City, CA, USA). The relative mRNA expression was calculated according to the ΔCt method. The primer used were as follows (forward and reverse): hGapdh (for […]; rev […]), hBsep (for […]; rev […]), hOstα (for […]; rev […]), hNtcp (for […]; rev […]), hPxr (for GCAAGGGCTTTTTCAGGAG; rev GGGTCTTCCGGGTGATCT), hIl-8 (for […]; rev […]), hIl-1β (for […]; rev […]).

[3] = target: T1, PXR (Homo sapiens, UniProt O75469); experiment: PXR luciferase reporter transactivation assay (agonism) on HepG2 cells; format: cell-based; details: compound 10 μM, maximal transactivation compared to Rifaximin 10 μM, mean ± SD, at least three experiments
T1 construct: expressed in transfected cells; host or cells: HepG2
T1 sequence (O75469 1-434): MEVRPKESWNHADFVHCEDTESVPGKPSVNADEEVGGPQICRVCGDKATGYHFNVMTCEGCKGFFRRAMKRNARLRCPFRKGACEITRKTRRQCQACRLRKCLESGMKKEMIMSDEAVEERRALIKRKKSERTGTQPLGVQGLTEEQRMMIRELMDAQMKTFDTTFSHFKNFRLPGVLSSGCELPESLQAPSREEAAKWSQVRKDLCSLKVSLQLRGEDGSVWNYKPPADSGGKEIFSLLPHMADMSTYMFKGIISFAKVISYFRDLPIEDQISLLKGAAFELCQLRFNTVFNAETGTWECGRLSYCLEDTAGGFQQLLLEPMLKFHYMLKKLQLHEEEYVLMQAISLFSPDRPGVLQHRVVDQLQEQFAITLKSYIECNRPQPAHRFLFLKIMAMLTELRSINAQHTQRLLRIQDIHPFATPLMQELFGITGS
T1 sequence (P19793 1-462 partner): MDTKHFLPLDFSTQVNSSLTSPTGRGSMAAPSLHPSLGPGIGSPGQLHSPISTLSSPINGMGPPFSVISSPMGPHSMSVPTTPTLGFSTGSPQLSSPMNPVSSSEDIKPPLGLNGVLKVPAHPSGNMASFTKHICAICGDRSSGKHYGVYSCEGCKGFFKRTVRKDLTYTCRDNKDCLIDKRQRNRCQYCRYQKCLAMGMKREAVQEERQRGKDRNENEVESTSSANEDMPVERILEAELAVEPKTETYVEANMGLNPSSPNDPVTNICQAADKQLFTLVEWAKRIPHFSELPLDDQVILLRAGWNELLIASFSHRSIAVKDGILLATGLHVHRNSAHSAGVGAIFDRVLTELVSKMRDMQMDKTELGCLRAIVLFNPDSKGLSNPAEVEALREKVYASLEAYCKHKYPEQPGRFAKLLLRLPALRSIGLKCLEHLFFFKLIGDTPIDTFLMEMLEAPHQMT
Description: The antagonistic activity on FXR was investigated using HepG2 cells transfected with 100 ng of pSG5-FXR and pSG5-RXR, 200 ng of the reporter vector p(hsp27)-TK-LUC containing the FXR response element, and 100 ng of the pGL4.70 vector encoding the human Renilla gene used as a transfection control. Cells were stimulated with the agonist 6-ECDCA (10 µM) alone or in combination with compounds 2–11 after 24 h. In another experimental setting, HepG2 cells were transfected using 100 ng of pSG5-PXR, 100 ng of pSG5-RXR, and 100 ng of pGL4.70, along with the reporter vector pGL3(henance)PXRE. At 24 h post-transfection, cells were stimulated with rifaximin 10 μM (as a positive control) or compounds 2–11 (10 μM). The specificity of compounds 5 and 11 versus FXR and PXR was tested using HepG2 cells transiently transfected with 200 ng of the reporter vector p(UAS)5XTKLuc, 100 ng of a vector containing the ligand binding domain of LXRα or LXRβand 100 ng of pGL4.70, a vector encoding the human Renilla gene. At 24 h post-transfection, cells were stimulated for 18 h with GW3965 (5 μM), compounds 5 and 11 (10 μM), and the combination of GW3965 plus 5 or 11 (50 μM). Cellular lysate was assayed for luciferase and Renilla activities after 18 h using the Dual-Luciferase Reporter assay system (E1980, Promega, Madison, WI, USA). The activity of luciferase was measured using the Glomax 20/20 luminometer (Promega, Madison, WI, USA) and normalized with Renilla activities.

[4] = target: T1, PXR; experiment: as above; format: cell-based; details: concentration-response, mean ± SEM, at least three experiments

logD at 2 h [1]	PXR Agonism Eff (%) [3]	EC50 [4] [µM]	Compound	Effect on BSEP mRNA expression induced by 6-ECDCA [2]	Effect on NTCP mRNA expression [2]	Effect on OSTα mRNA expression induced by 6-ECDCA [2]
4.4	71% and 71 ± 4%	6.4 ± 0.1	CCCCCN1CCC(c2nc(-c3ccc4ccccc4c3)no2)CC1 [Compound 5, 3-(Naphthalen-2-yl)-5-(1-pentylpiperidin-4-yl)-1,2,4-oxadiazole]	reversed the effect	showed antagonistic activity	only a trend
3.9	105% and 105 ± 15%	7.5 ± 1	OCc1ccc(CN2CCC(c3nc(-c4ccc5ccccc5c4)no3)CC2)cc1 [Compound 11, 5-[1-(4-(Hydroxymethyl)benzyl)piperidin-4-yl]-3-(naphthalen-2-yl)-1,2,4-oxadiazole]	reversed the effect	–	only a trend
